Source: patent US8916599B2, “1H-benz imidazole-5-carboxamides as anti-inflammatory agents” (Orexo AB, priority 2008, dated 2014)

target: T1, recombinant human mPGES-1 (Homo sapiens, UniProt O14684); assay: mPGES-1 inhibition test (microsomes, PGH2 substrate, HTRF detection of PGE2); type: biochemical; conditions: not given
T1 construct: made in house; host or cells: Rosetta E. coli (microsomal/membrane fraction)
T1 sequence (O14684 1-152): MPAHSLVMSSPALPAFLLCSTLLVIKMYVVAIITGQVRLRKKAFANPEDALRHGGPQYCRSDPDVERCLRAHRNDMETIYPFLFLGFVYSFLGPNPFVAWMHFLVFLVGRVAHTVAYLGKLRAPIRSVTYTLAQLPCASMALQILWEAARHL
Summary of the method: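 E. coli microsomal enzyme, 0.1 M KPi pH 7.4 + 2.5 mM GSH; cpd (DMSO) 25 min RT; PGH2 1 min; acidic FeCl2 stop. Dilute 750-fold, HTRF (d2/Eu-cryptate anti-PGE2, overnight 4 °C), 665/620 ratio vs PGE2 standard curve.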

Row | SMILES | inhibition at 10 µM
1 | COc1cc2[nH]c(Nc3c(Cl)cccc3Cl)nc2cc1C(=O)NCC(F)(F)C(F)(F)C(F)(F)F [Example 632, N-(2,2,3,3,4,4,4-heptafluoro-butyl)-2-(2,6-dichlorophenylamino)-6-methoxy-1H-benzimidazole-5-carboxamide] | 99%

same assay, conditions: inhibition of mPGES-1 at 1 μM (marked in cell)

Row | inhibition at 1 µM | SMILES
2 | 94% | COc1cc2c(cc1C(=O)NC1CCC(C)(C)CC1)nc(Nc1c(F)c(F)cc(F)c1F)n2C [Example 652, 2-(2,3,5,6-tetrafluoro-phenylamino)-6-methoxy-N-(4,4-dimethy-cyclohex-1-yl)-1-methyl-1H-benzimidazole-5-carboxamide]
3 | 100% | COc1cc2c(cc1C(=O)NC1CCCCC1)nc(Nc1c(Cl)ccc(C)c1F)n2C [Example 651, 2-(6-Chloro-2-fluoro-3-methyl-phenylamino)-6-methoxy-N-cyclohexyl-1-methyl-1H-benzimidazole-5-carboxamide]
4 | 100% | COc1cc2c(cc1C(=O)NC1CCC3(CC1)CC3)nc(Nc1c(Cl)ccc(Cl)c1F)n2C [Example 645, 2-(3,6-Dichloro-2-fluoro-phenylamino)-6-methoxy-N-(spiro[2.5]oct-6-yl)-1-methyl-1H-benzimidazole-5-carboxamide]
5 | 100% | COc1cc2c(cc1C(=O)N[C@H]1CC[C@H](C(F)(F)F)CC1)nc(Nc1c(Cl)ccc(Cl)c1F)n2C [Example 643, 2-(3,6-Dichloro-2-fluoro-phenylamino)-6-methoxy-N-(trans-4-trifluoromethyl-cyclohex-1-yl)-1-methyl-1H-benzimidazole-5-carboxamide]

same assay, conditions: inhibition of mPGES-1 at 10 μM

Row | SMILES | inhibition at 10 µM
6 | CC1(C)CCC(NC(=O)c2cc3nc(Nc4c(Cl)ccc(Cl)c4F)[nH]c3cc2F)CC1 [Example 596, 2-(3,6-Dichloro-2-fluoro-phenylamino)-N-(4,4-dimethyl-cyclohex-1-yl)-6-fluoro-1H-benzimidazole-5-carboxamide] | 95%
7 | O=C(NC1CCC(C(F)(F)F)CC1)c1cc2nc(Nc3c(F)ccc(Cl)c3Cl)[nH]c2cc1OCC(F)(F)F (stereo not drawn) [Example 591, 2-(2,3-Dichloro-6-fluoro-phenylamino)-6-(2,2,2-trifluoro-ethoxy)-N-(4-trans-trifluoromethyl-cyclohex-1-yl) 1H-benzimidazole-5-carboxamide] | 99%
8 | CN(C)c1cc(C(F)(F)F)cc(NC(=O)c2cc3nc(Nc4c(Cl)cc(F)cc4Cl)[nH]c3cc2OCC(F)(F)F)n1 [Example 575, 2-(2,6-Dichloro-4-fluoro-phenylamino)-N-(6-dimethylamino-4-trifluoromethyl-pyridin-2-yl)-6-(2,2,2-trifluorethoxy)-1H-benzimidazole-5-carboxamide] | 82%
9 | COc1cc2c(cc1C(=O)NCc1ncccc1C(F)(F)F)nc(Nc1c(Cl)cccc1Cl)n2C [Example 370, 2-(2,6-Dichlorophenylamino)-6-methoxy-1-methyl-N-((3-trifluoromethyl-pyridin-2-yl)methyl)-1H-benzimidazole-5-carboxamide] | 100%
10 | CNCCn1c(Nc2c(Cl)cccc2Cl)nc2cc(C(=O)Nc3cc(Cl)ccn3)ccc21 [Example 212, 2-(2,6-Dichloro-phenylamino)-1-(2-methylamino-ethyl)-1H-benzimidazole-5-carboxylic acid (4-chloro-pyridin-2-yl)-amide (trifluoroacetate)] | 100%
11 | Cc1cc(C)c(Nc2nc3cc(C(=O)Nc4ccc(Br)cc4)ccc3n2C)c(Cl)c1 [Example 489, N-(4-Bromophenyl)-2-(2-chloro-4,6-dimethylphenylamino)-1-methyl-1H-benzimidazole-5-carboxamide] | 98%
12 | CC(C)(C)[C@H]1CC[C@H](NC(=O)c2cc3nc(Nc4c(Cl)cccc4Cl)[nH]c3cc2F)CC1 [Example 356, N-((1r,4r)-4-tert.-Butylcyclohexyl)-2-(2,6-dichlorophenylamino)-6-fluoro-1H-benzimidazole-5-carboxamide] | 100%
13 | Cn1c(Nc2c(F)cccc2Cl)nc2cc(C(=O)NC3CCC(C)(C)CC3)c(F)cc21 [Example 430, 2-(2-Chloro-6-fluorophenylamino)-N-(4,4-dimethylcyclohexyl)-6-fluoro-1-methyl-1H-benzimidazole-5-carboxamide] | 100%
14 | O=C(NC1CCC2(CC1)CC2)c1cc2nc(Nc3c(Cl)ccc(Cl)c3F)[nH]c2cc1F [Example 608, 2-(3,6-Dichloro-2-fluoro-phenylamino)-N-(spiro[2.5]oct-6-yl)-6-fluoro-1H-benzimidazole-5-carboxamide] | 92%
15 | CNCCCn1c(Nc2c(Cl)cccc2Cl)nc2cc(C(=O)Nc3cc(Cl)ccn3)ccc21 [Example 266, 2-(2,6-Dichloro-phenylamino)-1-(3-methylamino-propyl)-1H-benzimidazole-5-carboxylic acid (4-chloro-pyridin-2-yl)-amide] | 100%
16 | Cn1c(Nc2c(Cl)cccc2Cl)nc2cc(C(=O)NC3CCCC(C)(C)C3)c(F)cc21 (stereo not shown) [Example 355, 2-(2,6-Dichlorophenylamino)-N-(3,3-dimethylcyclohexyl)-6-fluoro-1-methyl-1H-benzimidazole-5-carboxamide] | 100%
17 | COc1cc2[nH]c(Nc3c(Cl)cccc3Cl)nc2cc1C(=O)NCc1ncccc1C1CC1 [Example 407, N-((3-Cyclopropylpyridin-2-yl)-methyl)-2-(2,6-dichlorophenylamino)-6-methoxy-1H-benzimidazole-5-carboxamide] | 100%
18 | O=C(NC1CCC(F)(F)CC1)c1cc2[nH]c(Nc3c(Cl)cccc3Cl)nc2cc1F [Example 149, 2-(2,6-Dichloro-phenylamino)-6-fluoro-3H-benzimidazole-5-carboxylic acid (4,4-difluoro-cyclohexyl)-amide] | 100%
19 | CN(C)c1ccnc(NC(=O)c2ccc3c(c2)nc(Nc2c(Cl)cccc2Cl)n3C)c1 [compound 559] | 85%
20 | COc1cc2[nH]c(Nc3c(Cl)cccc3Cl)nc2cc1C(=O)NCc1ncccc1C [Example 577, 2-(2,6-Dichlorophenylamino)-6-methoxy-N-((3-methylpyridin-2-yl)-methyl)-1H-benzimidazole-5-carboxamide] | 100%
21 | Cn1c(Nc2c(Cl)cccc2Cl)nc2cc(C(=O)Nc3cc(N4CCCCC4)ccn3)c(F)cc21 [Example 533, 2-(2,6-Dichlorophenylamino)-6-fluoro-1-methyl-N-(4-(piperidin-1-yl)-pyridin-2-yl)-1H-benzimidazole-5-carboxamide] | 91%
22 | CN(C)CCn1c(Nc2c(Cl)cccc2Cl)nc2cc(C(=O)Nc3cc(Cl)ccn3)ccc21 [Example 273, 2-(2,6-Dichloro-phenylamino)-1-(2-dimethylamino-ethyl)-1H-benzimidazole-5-carboxylic acid (4-chloro-pyridin-2-yl)-amide] | 100%

Other lines, results leading:

Row | inhibition at 10 µM | SMILES
23 | 100% | Cn1c(Nc2cc(Cl)ccc2Cl)nc2cc(C(=O)Nc3ccc(Br)cc3)ccc21 [Example 380, N-(4-Bromophenyl)-2-(2,5-dichlorophenylamino)-1-methyl-1H-benzimidazole-5-carboxamide]
24 | 91% | O=C(Nc1ccccc1)c1ccc2[nH]c(Nc3c(F)cccc3Cl)nc2c1 [Example 19, 2-(2-Chloro-6-fluoro-phenylamino)-1H-benzimidazole-5-carboxylic acid-phenylamide]
25 | 96% | O=C(Nc1ccc(Br)cc1)c1cc2nc(Nc3c(Cl)cccc3Cl)[nH]c2cc1OCC(F)(F)F [Example 590, 2-(2,6-Dichloro-phenylamino)-N-(4-bromo-phenyl)-6-(2,2,2-trifluoroethoxy)-1H-benzimidazole-5-carboxamide]
26 | 64% | CO[C@H]1CC[C@H](NC(=O)c2ccc3[nH]c(Nc4c(Cl)cccc4Cl)nc3c2)CC1 [Example 216, 2-(2,6-Dichloro-phenylamino)-1H-benzimidazole-5-carboxylic acid ((1R,4R)-4-methoxy-cyclohexyl)-amide]
27 | 84% | Cn1c(Nc2c(Cl)cccc2Cl)nc2cc(C(=O)NCCc3ccncc3)ccc21 [Example 260, 2-(2,6-Dichloro-phenylamino)-1-methyl-1H-benzimidazole-5-carboxylic acid (2-pyridin-4-yl-ethyl)-amide]
28 | 86% | COCCOc1cccc(NC(=O)c2ccc3[nH]c(Nc4c(Cl)cccc4Cl)nc3c2)n1 [Example 571, 2-(2,6-Dichlorophenylamino)-N-(6-(2-methoxyethoxy)pyridin-2-yl)-1H-benzimidazole-5-carboxamide]
29 | 100% | Cn1c(Nc2c(Cl)cc(F)cc2Cl)nc2cc(C(=O)Nc3ccc(Br)cc3)ccc21 [Example 578, 2-(2,6-Dichloro-4-fluoro-phenylamino)-N-(4-bromo-phenyl)-1-methyl-1H-benzimidazole-5-carboxamide]
30 | 100% | O=C(NC1Cc2ccccc2C1)c1cc2nc(Nc3c(Cl)cccc3Cl)[nH]c2cc1F [Example 125, 2-(2,6-Dichloro-phenylamino)-6-fluoro-1H-benzimidazol-5-carboxylic acid indan-2-yl-amide]
31 | 93% | O=C(Nc1ccccc1)c1ccc2[nH]c(Nc3ccccc3Cl)nc2c1 [Example 9, 2-(2-Chloro-phenylamino)-1H-benzimidazole-5-carboxylic acid-phenylamide]
32 | 98% | COc1cc2nc(Nc3c(Cl)cccc3Cl)[nH]c2cc1C(=O)NCc1ccccc1C(F)(F)F [Example 200]
33 | 100% | COc1cc2nc(Nc3c(Cl)cccc3Cl)[nH]c2cc1C(=O)Nc1ccc(Cl)c(F)c1 [Example 197]
34 | 93% | O=C(Nc1ccc(Cl)c(F)c1)c1cc2nc(Nc3c(Cl)cccc3Cl)[nH]c2cc1Cl [Example 55, 2-(2,6-Dichloro-phenylamino)-6-chloro-1H-benzimidazol-5-carboxylic acid (4-chloro-3-fluoro-phenyl)-amide]
